Measured values from ChEMBL document CHEMBL6078645, “Expanding the Solvent/Protein Region Occupation of the Non-Nucleoside Reverse Transcriptase Inhibitor Binding Pocket for Improved Broad-Spectrum Anti-HIV-1 Efficacy: from Rigid Phenyl-Diarylpyrimidines to Flexible Hydrophilic Piperidine-Diarylpyrimidines” (J Med Chem, 2024).
≈ marks a conversion by molar mass, not a printed value.

How the values were obtained:
[1] = test system: Human immunodeficiency virus 1; test: Antiviral activity against HIV-1 harboring RES056 mutant infected in human MT4 cells assessed as protection against virus-induced cytopathic effect incubated for 5 days by MTT assay; type: functional, organism-based; conditions: Human immunodeficiency virus 1, MT4, 120 h
Cytochrome P450 3A4 [2] = target: T1, Cytochrome P450 3A4 (Homo sapiens, UniProt P08684); test: Inhibition of CYP3A4 in human liver microsome using midazolam as substrate preincubated with compound for 10 minutes followed NADPH addition and measured after 15 mins by LC-MS/MS analysis; type: ADME, microsomes
[3] = Acute toxicity in SPF ICR mouse assessed as pathological change in liver at 2 mg/kg, IG measured on day 14; type: organism-based; conditions: in vivo, po, 336 h, time 14 day
Cytochrome P450 2D6 = Cytochrome P450 2D6 (Homo sapiens, UniProt P10635); test: Inhibition of CYP2D6 in human liver microsome preincubated with compound for 10 minutes followed NADPH addition and measured after 15 mins by LC-MS/MS analysis; type: ADME, microsomes
[4] = Solubility of compound in phosphate buffer at pH 2 incubated for 24 hrs by HPLC analysis; type: physicochemical
[5] = target: Voltage-gated inwardly rectifying potassium channel KCNH2 (Homo sapiens, UniProt Q12809); test: Inhibition of hERG potassium channel stably expressed in CHO cells at -80 mV holding potential by whole-cell patch-clamp analysis; type: toxicity, cell-based
[6] = Acute toxicity in SPF ICR mouse assessed as liver damage at 2 mg/kg, IG measured on day 14; type: organism-based; conditions: in vivo, po, 336 h, time 14 day
[7] = Acute toxicity in SPF ICR mouse assessed as brain damage at 2 mg/kg, IG measured on day 14; type: organism-based; conditions: in vivo, po, 336 h, time 14 day
[8] = Acute toxicity in SPF ICR mouse assessed as pathological change in heart at 2 mg/kg, IG measured on day 14; type: organism-based; conditions: in vivo, po, 336 h, time 14 day
[9] = Acute toxicity in SPF ICR mouse assessed as abnormal behavior at 2 mg/kg, IG measured for 2 weeks; type: organism-based; conditions: in vivo, po, 336 h
[10] = test system: Human immunodeficiency virus 1; test: Antiviral activity against HIV-1 harboring K103N mutant infected in human MT4 cells assessed as protection against virus-induced cytopathic effect incubated for 5 days by MTT assay; type: functional, organism-based; conditions: Human immunodeficiency virus 1, MT4, 120 h
[11] = test system: Human immunodeficiency virus 1; test: Antiviral activity against HIV-1 harboring E138K mutant infected in human MT4 cells assessed as protection against virus-induced cytopathic effect incubated for 5 days by MTT assay; type: functional, organism-based; conditions: Human immunodeficiency virus 1, MT4, 120 h
[12] = Cytotoxicity against human MT4 cells assessed as reduction in cell viability incubated for 5 days by MTT assay; type: toxicity, cell-based; conditions: MT4 cells, time 5 day
[13] = Acute toxicity in SPF ICR mouse assessed as distress at 2 mg/kg, IG measured for 2 weeks; type: organism-based; conditions: in vivo, po, 336 h
[14] = test system: Human immunodeficiency virus 1; test: Antiviral activity against HIV-1 harboring F227L/V106A double mutant infected in human MT4 cells assessed as protection against virus-induced cytopathic effect incubated for 5 days by MTT assay; type: functional, organism-based; conditions: Human immunodeficiency virus 1, MT4, 120 h
[15] = Acute toxicity in SPF ICR mouse assessed as pathological change in brain at 2 mg/kg, IG measured on day 14; type: organism-based; conditions: in vivo, po, 336 h, time 14 day
Cytochrome P450 3A4 [16] = target: T1, Cytochrome P450 3A4; test: Inhibition of CYP3A4 in human liver microsome using testosterone as substrate preincubated with compound for 10 minutes followed NADPH addition and measured after 15 mins by LC-MS/MS analysis; type: ADME, microsomes
[17] = Selectivity index, ratio of CC50 for cytotoxicity against human MT4 cells assessed as reduction in cell viability to EC50 for antiviral activity against wild type HIV-1 IIIB infected in human MT4 cells assessed as protection against virus-induced cytopathic effect; type: toxicity, cell-based; conditions: MT4 cells, read-out: Ratio CC50/EC50
[18] = test system: Human immunodeficiency virus 1; test: Antiviral activity against HIV-1 harboring Y188L mutant infected in human MT4 cells assessed as protection against virus-induced cytopathic effect incubated for 5 days by MTT assay; type: functional, organism-based; conditions: Human immunodeficiency virus 1, MT4, 120 h
Cytochrome P450 2C19 = Cytochrome P450 2C19 (Homo sapiens, UniProt P33261); test: Inhibition of CYP2C19 in human liver microsome preincubated with compound for 10 minutes followed NADPH addition and measured after 15 mins by LC-MS/MS analysis; type: ADME, microsomes
[19] = Solubility of compound in phosphate buffer at pH 7 incubated for 24 hrs by HPLC analysis; type: physicochemical
[20] = Acute toxicity in SPF ICR mouse assessed as lung damage at 2 mg/kg, IG measured on day 14; type: organism-based; conditions: in vivo, po, 336 h, time 14 day
Cytochrome P450 1A2 = target: T2, Cytochrome P450 1A2 (Homo sapiens, UniProt P05177); test: Inhibition of CYP1A2 in human liver microsome preincubated with compound for 10 minutes followed NADPH addition and measured after 15 mins by LC-MS/MS analysis; type: ADME, microsomes
T2 sequence (P05177 whole entry): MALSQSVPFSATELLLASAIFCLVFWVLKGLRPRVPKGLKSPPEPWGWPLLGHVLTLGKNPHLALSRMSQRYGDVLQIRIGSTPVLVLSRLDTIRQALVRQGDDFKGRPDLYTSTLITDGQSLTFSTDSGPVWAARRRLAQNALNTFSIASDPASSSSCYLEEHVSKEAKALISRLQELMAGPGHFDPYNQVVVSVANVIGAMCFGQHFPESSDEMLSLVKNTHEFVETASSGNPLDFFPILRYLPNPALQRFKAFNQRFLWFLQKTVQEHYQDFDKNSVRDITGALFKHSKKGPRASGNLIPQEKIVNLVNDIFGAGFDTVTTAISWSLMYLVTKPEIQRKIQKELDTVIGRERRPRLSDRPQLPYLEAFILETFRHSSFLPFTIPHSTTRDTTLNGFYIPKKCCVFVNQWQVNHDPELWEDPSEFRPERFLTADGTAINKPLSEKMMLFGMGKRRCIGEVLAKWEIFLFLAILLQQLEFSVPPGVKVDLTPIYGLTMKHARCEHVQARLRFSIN

[21] = Acute toxicity in SPF ICR mouse assessed as spleen damage at 2 mg/kg, IG measured on day 14; type: organism-based; conditions: in vivo, po, 336 h, time 14 day
Cytochrome P450 2C9 = Cytochrome P450 2C9 (Homo sapiens, UniProt P11712); test: Inhibition of CYP2C9 in human liver microsome preincubated with compound for 10 minutes followed NADPH addition and measured after 15 mins by LC-MS/MS analysis; type: ADME, microsomes
[22] = Acute toxicity in SPF ICR mouse assessed as heart damage at 2 mg/kg, IG measured on day 14; type: organism-based; conditions: in vivo, po, 336 h, time 14 day
[23] = Acute toxicity in SPF ICR mouse at 2 mg/kg, IG measured for 2 weeks; type: organism-based; conditions: in vivo, po, 336 h
[24] = test system: Human immunodeficiency virus 1; test: Antiviral activity against HIV-1 harboring Y181C mutant infected in human MT4 cells assessed as protection against virus-induced cytopathic effect incubated for 5 days by MTT assay; type: functional, organism-based; conditions: Human immunodeficiency virus 1, MT4, 120 h
[25] = test system: Human immunodeficiency virus 1; test: Antiviral activity against HIV-1 harboring L100I mutant infected in human MT4 cells assessed as protection against virus-induced cytopathic effect incubated for 5 days by MTT assay; type: functional, organism-based; conditions: Human immunodeficiency virus 1, MT4, 120 h
[26] = Acute toxicity in SPF ICR mouse assessed as pathological change in kidney at 2 mg/kg, IG measured on day 14; type: organism-based; conditions: in vivo, po, 336 h, time 14 day
[27] = target: T3, Human immunodeficiency virus type 1 reverse transcriptase (Human immunodeficiency virus 1, UniProt Q72547); test: Inhibition of wildtype recombinant HIV-1 Reverse transcriptase incubated for 40 mins by spectrofluorometric analysis
[28] = Acute toxicity in SPF ICR mouse assessed as change in body weight at 2 mg/kg, IG measured for 2 weeks; type: organism-based; conditions: in vivo, po, 336 h
[29] = Acute toxicity in SPF ICR mouse assessed as mortality at 2 mg/kg, IG measured for 2 weeks; type: organism-based; conditions: in vivo, po, 336 h
[30] = Solubility of compound incubated for 24 hrs by HPLC analysis; type: physicochemical
[31] = Acute toxicity in SPF ICR mouse assessed as kidney damage at 2 mg/kg, IG measured on day 14; type: organism-based; conditions: in vivo, po, 336 h, time 14 day
[32] = Solubility of compound in phosphate buffer at pH 7.4 incubated for 24 hrs by HPLC analysis; type: physicochemical
[33] = target: T3, Human immunodeficiency virus type 1 reverse transcriptase; test: Inhibition of HIV-1 reverse transcriptase
[34] = Acute toxicity in SPF ICR mouse assessed as pathological change in lung at 2 mg/kg, IG measured on day 14; type: organism-based; conditions: in vivo, po, 336 h, time 14 day
[35] = Acute toxicity in SPF ICR mouse assessed as pathological change in spleen at 2 mg/kg, IG measured on day 14; type: organism-based; conditions: in vivo, po, 336 h, time 14 day

T1 sequence (P08684 whole entry): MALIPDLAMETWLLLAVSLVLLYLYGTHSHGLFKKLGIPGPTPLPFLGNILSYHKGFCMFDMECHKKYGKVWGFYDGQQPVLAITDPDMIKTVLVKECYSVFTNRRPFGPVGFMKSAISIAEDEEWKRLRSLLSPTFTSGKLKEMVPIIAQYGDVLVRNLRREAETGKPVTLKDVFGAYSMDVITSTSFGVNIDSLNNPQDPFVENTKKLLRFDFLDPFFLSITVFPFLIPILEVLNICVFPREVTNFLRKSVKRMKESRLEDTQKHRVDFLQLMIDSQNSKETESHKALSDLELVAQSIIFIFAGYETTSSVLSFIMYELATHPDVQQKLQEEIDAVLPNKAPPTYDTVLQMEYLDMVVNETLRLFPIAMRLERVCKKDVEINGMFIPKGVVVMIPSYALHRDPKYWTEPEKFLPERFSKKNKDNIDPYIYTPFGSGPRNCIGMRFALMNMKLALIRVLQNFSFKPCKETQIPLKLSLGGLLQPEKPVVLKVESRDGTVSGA
Sequence of Cytochrome P450 2C19 (P33261 whole entry): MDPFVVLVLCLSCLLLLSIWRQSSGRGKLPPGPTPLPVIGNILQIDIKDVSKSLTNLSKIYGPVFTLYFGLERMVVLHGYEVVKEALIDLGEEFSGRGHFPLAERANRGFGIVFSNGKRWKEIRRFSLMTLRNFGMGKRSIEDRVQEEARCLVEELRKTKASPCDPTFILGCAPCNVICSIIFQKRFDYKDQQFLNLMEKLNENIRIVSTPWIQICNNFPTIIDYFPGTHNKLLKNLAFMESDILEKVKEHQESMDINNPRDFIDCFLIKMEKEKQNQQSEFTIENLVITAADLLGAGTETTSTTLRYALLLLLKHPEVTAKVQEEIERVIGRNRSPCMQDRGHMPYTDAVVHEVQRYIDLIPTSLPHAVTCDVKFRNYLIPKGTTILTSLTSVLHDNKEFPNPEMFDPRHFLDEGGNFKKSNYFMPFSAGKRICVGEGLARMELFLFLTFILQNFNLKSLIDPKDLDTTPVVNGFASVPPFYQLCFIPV
Sequence of Cytochrome P450 2C9 (P11712 whole entry): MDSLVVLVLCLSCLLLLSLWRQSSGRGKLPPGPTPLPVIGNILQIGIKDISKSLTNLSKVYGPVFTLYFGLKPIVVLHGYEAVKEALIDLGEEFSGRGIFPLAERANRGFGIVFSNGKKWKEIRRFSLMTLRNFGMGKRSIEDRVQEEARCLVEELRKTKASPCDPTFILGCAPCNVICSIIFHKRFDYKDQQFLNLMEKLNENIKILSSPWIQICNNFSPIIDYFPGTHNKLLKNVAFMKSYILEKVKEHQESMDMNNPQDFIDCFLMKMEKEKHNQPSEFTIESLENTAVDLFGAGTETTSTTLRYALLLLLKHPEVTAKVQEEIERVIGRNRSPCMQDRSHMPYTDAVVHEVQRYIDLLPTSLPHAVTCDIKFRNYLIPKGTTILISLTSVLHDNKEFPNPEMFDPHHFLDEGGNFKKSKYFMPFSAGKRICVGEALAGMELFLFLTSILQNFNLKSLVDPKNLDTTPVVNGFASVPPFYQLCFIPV
Sequence of Cytochrome P450 2D6 (P10635 whole entry): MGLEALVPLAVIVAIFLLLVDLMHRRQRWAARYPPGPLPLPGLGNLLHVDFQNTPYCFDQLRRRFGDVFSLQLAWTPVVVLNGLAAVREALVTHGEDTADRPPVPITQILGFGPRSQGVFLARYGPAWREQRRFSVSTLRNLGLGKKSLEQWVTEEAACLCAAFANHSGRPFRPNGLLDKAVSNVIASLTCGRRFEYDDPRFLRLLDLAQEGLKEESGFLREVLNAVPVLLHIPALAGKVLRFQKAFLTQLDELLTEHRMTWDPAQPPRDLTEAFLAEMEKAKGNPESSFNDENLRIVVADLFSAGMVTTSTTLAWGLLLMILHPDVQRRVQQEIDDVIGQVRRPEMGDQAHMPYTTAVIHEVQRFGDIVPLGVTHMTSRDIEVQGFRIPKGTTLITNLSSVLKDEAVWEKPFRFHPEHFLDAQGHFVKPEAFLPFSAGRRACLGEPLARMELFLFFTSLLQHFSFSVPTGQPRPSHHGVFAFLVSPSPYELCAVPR
Sequence of Voltage-gated inwardly rectifying potassium channel KCNH2 (Q12809 whole entry): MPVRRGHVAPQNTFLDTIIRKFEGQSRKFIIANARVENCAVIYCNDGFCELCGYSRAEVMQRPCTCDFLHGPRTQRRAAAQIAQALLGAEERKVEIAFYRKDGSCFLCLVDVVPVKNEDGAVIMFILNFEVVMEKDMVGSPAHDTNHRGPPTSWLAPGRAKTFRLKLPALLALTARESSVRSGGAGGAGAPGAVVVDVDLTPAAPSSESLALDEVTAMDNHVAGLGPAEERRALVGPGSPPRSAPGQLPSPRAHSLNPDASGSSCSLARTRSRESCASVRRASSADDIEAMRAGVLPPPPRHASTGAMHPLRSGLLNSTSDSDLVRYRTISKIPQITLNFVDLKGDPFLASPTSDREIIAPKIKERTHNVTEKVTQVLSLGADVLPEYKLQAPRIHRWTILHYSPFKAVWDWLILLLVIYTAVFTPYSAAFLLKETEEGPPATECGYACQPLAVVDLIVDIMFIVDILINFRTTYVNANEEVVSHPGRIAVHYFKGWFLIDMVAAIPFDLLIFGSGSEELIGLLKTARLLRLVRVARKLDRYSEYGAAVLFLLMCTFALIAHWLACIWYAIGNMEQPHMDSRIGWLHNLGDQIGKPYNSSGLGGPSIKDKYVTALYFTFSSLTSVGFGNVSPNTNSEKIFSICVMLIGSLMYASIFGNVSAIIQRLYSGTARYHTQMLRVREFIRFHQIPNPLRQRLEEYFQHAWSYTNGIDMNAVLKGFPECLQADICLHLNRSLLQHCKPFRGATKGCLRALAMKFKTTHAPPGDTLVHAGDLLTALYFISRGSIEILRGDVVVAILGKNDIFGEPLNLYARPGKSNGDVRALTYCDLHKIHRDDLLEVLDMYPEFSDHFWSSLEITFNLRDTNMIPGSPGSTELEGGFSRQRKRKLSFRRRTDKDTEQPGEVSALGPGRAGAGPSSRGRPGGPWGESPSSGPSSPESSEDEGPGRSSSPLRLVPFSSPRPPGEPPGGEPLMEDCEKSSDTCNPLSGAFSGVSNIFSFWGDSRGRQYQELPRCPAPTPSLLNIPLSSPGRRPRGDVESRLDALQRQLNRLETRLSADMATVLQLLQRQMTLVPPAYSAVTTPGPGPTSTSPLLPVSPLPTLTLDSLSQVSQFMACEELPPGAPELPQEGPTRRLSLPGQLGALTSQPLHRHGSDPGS

## Cc1cc(-c2ccc(C#N)cc2)cc(C)c1Oc1nc(NC2CCN(Cc3ccc(S(N)(=O)=O)cc3)CC2)ncc1CO
[1]
  EC50: 0.045 µM
Cytochrome P450 3A4 [2]
  IC50: 50 µM
[3]
  Activity: Non-toxic
Cytochrome P450 2D6
  IC50: 50 µM
[4]
  solubility at 24 h: 3520 µg/mL (≈ 5890 µM)
[5]
  IC50: 20 µM
[6]
  Activity: Non-toxic
[7]
  Activity: Non-toxic
[8]
  Activity: Non-toxic
[9]
  Activity: Non-toxic
[10]
  EC50: 0.009 µM
[11]
  EC50: 0.008 µM
[12]
  CC50 at 120 h: 18.2 µM
[13]
  Activity: Non-toxic
[14]
  EC50: 0.015 µM
[15]
  Activity: Non-toxic
Cytochrome P450 3A4 [16]
  IC50: 50 µM
[17]
  selectivity ratio: 6540
[18]
  EC50: 0.023 µM
Cytochrome P450 2C19
  IC50: 25.7 µM
[19]
  solubility at 24 h: < 1 µg/mL
[20]
  Activity: Non-toxic
Cytochrome P450 1A2
  IC50: 50 µM
[21]
  Activity: Non-toxic
Cytochrome P450 2C9
  IC50: 17.6 µM
[22]
  Activity: Non-toxic
[23]
  Activity: Non-toxic
[24]
  EC50: 0.01 µM
[25]
  EC50: 0.009 µM
[26]
  Activity: Non-toxic
[27]
  IC50: 0.293 µM
[28]
  Activity: Non-toxic
[29]
  Activity: Non-toxic
[30]
  solubility at 24 h: < 1 µg/mL
[31]
  Activity: Non-toxic
[32]
  solubility at 24 h: < 1 µg/mL
[33]
  EC50: 0.003 µM
[34]
  Activity: Non-toxic
[35]
  Activity: Non-toxic
